# Reference: ChEMBL document CHEMBL3867437, “Oryzamides A-E, Cyclodepsipeptides from the Sponge-Derived Fungus Nigrospora oryzae PF18” (J Nat Prod, 2016)
# Assays:
# [1] = Cytotoxicity against human HeLa cells after 48 hrs by MTT assay; assay type: functional, cell-based
# Staphylococcus aureus [2] = test: Antibacterial activity against methicillin-resistant Staphylococcus aureus ATCC 43300 after 24 hrs by spectrophotometric analysis; assay type: functional; conditions: ATCC 43300, 24 h
# Staphylococcus aureus [3] = test: Antibacterial activity against methicillin-sensitive Staphylococcus aureus ATCC 25923 after 24 hrs by spectrophotometric analysis; assay type: functional; conditions: ATCC 25923, 24 h
# Escherichia coli = test: Antibacterial activity against Escherichia coli ATCC 25922 after 24 hrs by spectrophotometric analysis; assay type: functional; conditions: ATCC 25922, 24 h
smiles,measurement,setting,value
CCCCCC[C@H](C)[C@@H]1CC(=O)NCC(=O)N[C@@H](C(C)C)C(=O)N[C@H](CC(C)C)C(=O)N[C@@H](C)C(=O)N[C@@H](CCSC)C(=O)O1,IC50,[1],31.3 µM
CCCCCC[C@H](C)[C@@H]1CC(=O)NCC(=O)N[C@@H](C(C)C)C(=O)N[C@H](CC(C)C)C(=O)N[C@@H](C)C(=O)N[C@@H](CC(C)C)C(=O)O1,IC50,[1],25.7 µM
CCCCCC[C@H](C)[C@@H]1CC(=O)NCC(=O)N[C@@H](C(C)C)C(=O)N[C@H](CC(C)C)C(=O)N[C@@H](C)C(=O)N[C@@H](Cc2ccc(O)cc2)C(=O)O1,IC50,[1],12.4 µM
O=C(N[C@H](CO)[C@H](O)c1ccc([N+](=O)[O-])cc1)C(Cl)Cl [CHLORAMPHENICOL],MIC,Staphylococcus aureus [2],4 µg/mL
same,MIC,Staphylococcus aureus [3],2 µg/mL
same,MIC,Escherichia coli,2 µg/mL
